Structures are written as SMILES. pIC50: −log10 of the molar value. Counter-ions that a name gives are not always drawn.

This assay concerns the target T1, human LCE (Homo sapiens, UniProt Q9H5J4).
T1 sequence (Q9H5J4 1-265): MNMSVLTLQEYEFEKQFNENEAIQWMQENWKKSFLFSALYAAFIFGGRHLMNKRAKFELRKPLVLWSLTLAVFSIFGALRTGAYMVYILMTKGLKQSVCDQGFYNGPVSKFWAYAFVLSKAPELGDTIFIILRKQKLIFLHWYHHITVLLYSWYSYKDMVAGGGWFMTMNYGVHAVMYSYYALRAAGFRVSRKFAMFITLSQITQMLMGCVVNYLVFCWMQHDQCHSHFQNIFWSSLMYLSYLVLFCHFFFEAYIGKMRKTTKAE
Nature of the assay: LCE enzyme activity-inhibitory test. The conditions noted are these: [14C]-malonyl CoA / palmitoyl CoA substrate, 37° C., 90 minutes. Type of assay: biochemical. How it is done: Pharmacological Test Example 1 (LCE Enzyme Activity-inhibitory Test)
A test compound was dissolved in dimethyl sulfoxide (DMSO to be 10 mM), and then diluted with DMSO to prepare a 1000-fold concentrated solution of the test concentration. An improved Moon et al's method (J. Biol. Chem., Vol. 276, pp. 45358-45366, 2001) was employed for the LCE enzyme activity-inhibitor test. Concretely, the diluted compound was applied to a 96-well assay plate (Corning, 96-well assay block) in an amount of 1.0 μL/well; 50 μL of a phosphate buffer solution (100 mM potassium phosphate buffer, pH 6.5), and 25 μL of a substrate solution (100 mM potassium phosphate buffer (pH 6.5), 4.0 μM rotenone, 80 μM fatty acid-free bovine serum albumin, 160 μM palmitoyl CoA, 80 μM malonyl CoA, 3.5 μM [^14C]-malonyl CoA (1.92 GBq/mmol, by Amersham)) were added to each well; 25 μL of an enzyme solution (100 mM potassium phosphate buffer (pH 6.5), 100 μg/mL human LCE) was added thereto; the top of the plate was airtightly sealed up; and this was incubated with gently shaking and stirring at 37° C. for 90 minutes. Next, 100 μL of 5 M hydrochloric acid was added to each well, and the assay plate was stirred at room temperature for 5 minutes to stop the enzyme reaction with hydrolyzing the acyl CoA. Next, the enzyme reaction solution in each well was adsorbed by each well of a 96-well GF/C filter plate (Perkin Elmer Unifilter 96 GF/C); the individual wells were washed with water to remove the non-adsorbed malonyl CoA; and the GF/C filter plate was dried at 50° C. for 60 minutes. Next, 30 μL of a scintillator (Perkin Elmer Microscinti 0) was added to each well; then the top of the plate was sealed up; and the fixed [^14C] radioactivity was measured with a microplate scintillation counter (Perkin Elmer TopCount) to be the enzyme activity. The human LCE enzyme-inhibitory activity of the test compound was calculated, based on the radioactivity of the DMSO-added well with no test compound therein as a control.
As to `COc1cccnc1NC(=O)c1cccc(S(=O)(=O)N2CCCC(c3nc4ccccc4[nH]3)C2)c1` (stereo not drawn) [Example 50, 3-{[3-(1H-benzimidazol-2-yl)piperidin-1-yl]sulfonyl}-N-(3-methoxypyridin-2-yl)benzamide], the pIC50 (usually the negative decadic logarithm of the IC50, by convention in mol/L) is 7.28.

`COc1cccnc1NC(=O)c1cccc(S(=O)(=O)N2CC3CCC2CC3)c1` [Example 51, 3-(2-Azabicyclo[2.2.2]oct-2-ylsulfonyl)-N-(3-methoxypyridin-2-yl)benzamide] gave a negative-log IC50 (pIC50) of 6.48.

`COc1cccnc1NC(=O)c1cccc(S(=O)(=O)N2C3CCC2CC3)c1` [Example 52, 3-(7-Azabicyclo[2.2.1]hept-7-ylsulfonyl)-N-(3-methoxypyridin-2-yl)benzamide] had a pIC50 of 6.03.

On to `COc1cccnc1NC(=O)c1cccc(S(=O)(=O)N2C[C@H]3C[C@@H]2CO3)c1` [Example 53, N-(3-methoxypyridin-2-yl)-3-[(1R,4R)-2-oxa-5-azabicyclo[2.2.1]hept-5-ylsulfonyl]benzamide], for which the negative logarithm of the IC50 (pIC50) was 5.12. This pIC50 is 0.91 log units lower than that of the molecule before.

On to `COc1cccnc1NC(=O)c1cccc(S(=O)(=O)N2C3CCCC2CC3)c1` [Example 54, 3-(8-Azabicyclo[3.2.1]oct-8-ylsulfonyl)-N-(3-methoxypyridin-2-yl)benzamide], for which the pIC50 was 5.80.

The molecule `CCOC(=O)C1CCCN(S(=O)(=O)c2cccc(C(=O)Nc3ncccc3OC)c2)C1` (stereo not drawn) [Example 55, Ethyl 1-[(3-{[(3-methoxypyridin-2-yl)amino]carbonyl}phenyl)sulfonyl]piperidine-3-carboxylate] gave a pIC50 of 6.51.

In turn, `COc1cccnc1NC(=O)c1cccc(S(=O)(=O)N2CCCC(C(=O)O)C2)c1` (stereo not drawn) [Example 56, 1-[(3-{[(3-Methoxypyridin-2-yl)amino]carbonyl}phenyl)sulfonyl]piperidine-3-carboxylic acid] gave a pIC50 of 5.49.

`COc1cccnc1NC(=O)c1cccc(S(=O)(=O)N2CCCC(C(N)=O)C2)c1` (stereo not drawn) [Example 57, 1-[(3-{[(3-methoxypyridin-2-yl)amino]carbonyl}phenyl)sulfonyl]piperidine-3-carboxamide] showed a pIC50 of 6.08.

Molecule `CC(C)Oc1ccc(NC(=O)c2cccc(S(=O)(=O)N3CCCC(C(N)=O)C3)c2)nc1` (stereo not drawn) [Example 58, 1-[(3-{[(5-Isopropoxypyridin-2-yl)amino]carbonyl}phenyl)sulfonyl]piperidine-3-carboxamide] had a pIC50 of 6.80.

As to `CC(C)Oc1ccc(NC(=O)c2cccc(S(=O)(=O)N3CCC[C@H](C(N)=O)C3)c2)nc1` [Example 59, (3S)-1-[(3-{[(5-isopropoxypyridin-2-yl)amino]carbonyl}phenyl)sulfonyl]piperidine-3-carboxamide], the pIC50 was 6.96.

With `CC(C)Oc1ccc(NC(=O)c2cccc(S(=O)(=O)N3CCC[C@@H](C(N)=O)C3)c2)nc1` [Example 59′, (3R)-1-[(3-{[(5-isopropoxypyridin-2-yl)amino]carbonyl}phenyl)sulfonyl]piperidine-3-carboxamide], the pIC50 is 5.52.

`CNC(=O)C1CCCN(S(=O)(=O)c2cccc(C(=O)Nc3ncccc3OC)c2)C1` (stereo not drawn) [Example 60, 1-[(3-{[(3-methoxypyridin-2-yl)amino]carbonyl}phenyl)sulfonyl]-N-methylpiperidine-3-carboxamide]: the pIC50 is 5.96.

For the molecule `COc1cccnc1NC(=O)c1cccc(S(=O)(=O)N2CCCC(C(=O)NCc3ccccc3)C2)c1` (stereo not drawn) [Example 61, N-benzyl-1-[(3-{[(3-methoxypyridin-2-yl)amino]carbonyl}phenyl)sulfonyl]piperidine-3-carboxamide], the pIC50 was 7.27.

In turn, `COc1cccnc1NC(=O)c1cccc(S(=O)(=O)N2CCCC(C(=O)OCc3ccccc3)C2)c1` (stereo not drawn) [Example 62, Benzyl 1-[(3-{[(3-methoxypyridin-2-yl)amino]carbonyl}phenyl)sulfonyl]piperidine-3-carboxylate] had a pIC50 of 7.03.

The molecule `CC(C)Oc1cc(NC(=O)c2cccc(S(=O)(=O)N3CCOCC3)c2)[nH]n1` [Example 63, 3-Isopropoxy-5-{[3-(morpholin-4-ylsulfonyl)benzoyl]amino}-1H-pyrazole hydrochloride] had a pIC50 of 7.74.

For the molecule `CC(C)Oc1cc(NC(=O)c2cccc(S(=O)(=O)N3CCCC3C)c2)[nH]n1` (stereo not drawn) [Example 64, 3-Isopropoxy-5-({3-[(2-methylpyrrolidin-1-yl)sulfonyl]benzoyl}amino)-1H-pyrazole hydrochloride], the pIC50 is 8.30.

As for `CC(C)Oc1cc(NC(=O)c2cccc(S(=O)(=O)N3CCCC(CO)C3)c2)[nH]n1` (stereo not drawn) [Example 65, 5-[(3-{[3-(hydroxymethyl)piperidin-1-yl]sulfonyl}benzoyl)amino]-3-isopropoxy-1H-pyrazole hydrochloride], the pIC50 is 8.23.

`CC(C)Oc1cc(NC(=O)c2cccc(S(=O)(=O)N3CCCC(O)C3)c2)[nH]n1` (stereo not drawn) [Example 66, 5-({3-[(3-Hydroxypiperidin-1-yl)sulfonyl}benzoyl]amino)-3-isopropoxy-1H-pyrazole hydrochloride]: the pIC50 was 7.55. This pIC50 is 0.68 log units lower than that of the molecule before.

The molecule `CC(C)Oc1cc(NC(=O)c2cccc(S(=O)(=O)N3CCC(F)CC3)c2)[nH]n1` [Example 67, 5-({3-[(4-fluoropiperidin-1-yl)sulfonyl]benzoyl}amino)-3-isopropoxy-1H-pyrazole hydrochloride] showed a pIC50 of 8.00.

As to `CC(C)Oc1cc(NC(=O)c2cccc(S(=O)(=O)N3CCC(F)(F)CC3)c2)[nH]n1` [Example 68, 5-({3-[(4,4-difluoropiperidin-1-yl)sulfonyl]benzoyl}amino)-3-isopropoxy-1H-pyrazole hydrochloride], the pIC50 is 7.89.

As to `CC(C)Oc1cc(NC(=O)c2cccc(S(=O)(=O)N3CCCCC3)c2)[nH]n1` [Example 69, 3-Isopropoxy-5-{[3-(piperidin-1-ylsulfonyl)benzoyl}amino]-1H-pyrazole hydrochloride], the pIC50 is 8.64. Against the preceding molecule, the pIC50 is 0.75 log units higher.

For `CC(C)Oc1cc(NC(=O)c2cccc(S(=O)(=O)N3CCCC3)c2)[nH]n1` [Example 70, N-(3-isopropoxy-1H-pyrazol-5-yl)-3-(pyrrolidin-1-ylsulfonyl)benzamide hydrochloride], the pIC50 is 8.17. Compared with the last molecule, the pIC50 is 0.47 log units lower.

As for `O=C(Nc1ccc(F)cc1)c1cccc(S(=O)(=O)N2CCCCC2)c1` [Example 71, N-(4-fluorophenyl)-3-(piperidin-1-ylsulfonyl)benzamide], the pIC50 was 4.85.

The molecule `O=C(Nc1ccc(C(F)(F)F)cc1)c1cccc(S(=O)(=O)N2CCCCC2)c1` [Example 72, 3-(Piperidin-1-ylsulfonyl)-N-[4-(trifluoromethyl)phenyl]benzamide] showed a pIC50 of 5.92.

With `O=C(NCc1ccccc1)c1cccc(S(=O)(=O)N2CCCCC2)c1` [Example 73, N-benzyl-3-(piperidin-1-ylsulfonyl)benzamide], the pIC50 was 5.26.

Molecule `O=C(Nc1ccccn1)c1cccc(S(=O)(=O)N2CCCCC2)c1` [Example 74, 2-{[3-(Piperidin-1-ylsulfonyl)benzoyl}amino]pyridine trifluoroacetate] gave a negative-log IC50 (pIC50) of 5.31. The pIC50 values of the last two molecules are within 0.2 log units of each other.

`O=C(Nc1cccc2cnccc12)c1cccc(S(=O)(=O)N2CCCCC2)c1` [Example 76, 5-{[3-(piperidin-1-ylsulfonyl)benzoyl]amino}isoquinoline trifluoroacetate] gave a pIC50 of 5.59.

The molecule `CC(C)c1ccc(NC(=O)c2cccc(S(=O)(=O)N3CCCCC3)c2)cc1` [Example 77, N-(4-isopropylphenyl)-3-(piperidin-1-ylsulfonyl)benzamide] had a pIC50 of 7.47.

For the molecule `O=C(NCCc1ccccc1)c1cccc(S(=O)(=O)N2CCCCC2)c1` [Example 78, N-(2-phenylethyl)-3-(piperidin-1-ylsulfonyl)benzamide], the pIC50 was 5.10.

Consider `CSc1ccc(NC(=O)c2cccc(S(=O)(=O)N3CCCCC3)c2)cc1` [Example 79, N-[4-(methylthio)phenyl]-3-(piperidin-1-ylsulfonyl)benzamide], for which the pIC50 was 5.66.

`COc1ccccc1NC(=O)c1cccc(S(=O)(=O)N2CCCCC2)c1` [Example 80, N-(2-methoxyphenyl)-3-(piperidin-1-ylsulfonyl)benzamide] had a pIC50 of 7.36.

For the molecule `COc1cccc(NC(=O)c2cccc(S(=O)(=O)N3CCCCC3)c2)c1` [Example 81, N-(3-methoxyphenyl)-3-(piperidin-1-ylsulfonyl)benzamide], the pIC50 is 5.72.

For the molecule `O=C(Nc1ccon1)c1cccc(S(=O)(=O)N2CCCCC2)c1` [Example 82, N-isoxazol-3-yl-3-(piperidin-1-ylsulfonyl)benzamide], the pIC50 is 5.14.

(Values after patent US8420823B2, “Long-chain fatty acyl elongase inhibitor comprising arylsulfonyl derivative as active ingredient” (MSD K.K., priority 2008, dated 2013).)
